SMILES strings stand for the structures.

One compound from paper PMC10578927, “An unconventional gatekeeper mutation sensitizes inositol hexakisphosphate kinases to an allosteric inhibitor” (eLife, 2023) can be followed below.

Series [1] concerns HCT116 cells. The experiment in a line: Reverse transcription qPCR of 45S pre-rRNA transcript levels. The series is classed as cell-based. The following applies: HCT116 cells treated 5 hr, RT-qPCR, preliminary experiment. As to the method:
Total RNA was extracted using the RNeasy kit from QIAGEN. cDNA was generated using Thermo Fisher Scientific SuperScript III Reverse Transcriptase and 2 µg RNA following the vendor’s protocol. […] The cDNA was diluted 10-fold before conducting qPCR using SYBR Green PCR Master Mix and a StepOnePlus RT PCR System. The difference in transcript levels was calculated using the ΔΔct method and technical triplicates.
For orientation: Real-time PCR tracks product formation cycle by cycle.

Series [2] deals with T1, IP6K1^wt (Homo sapiens, UniProt Q92551).
T1 construct: made in house; host or cells: E. coli Arctic Express
The series is described as follows: High-throughput screen, reverse kinase reaction (5PP-InsP5 + ADP), Kinase-Glo luminescence. The series is classed as biochemical. The following applies: dose-dependent reconfirmation. In general terms: Kinase-Glo measures the ATP left after a reaction by luminescence.

In series [3] the test system is HEK293. The series is described as follows: Cytotoxicity, cell survival after 72 hr incubation. Format: cell-based. Particulars: HEK293, 10 µM. Here is the method: (§1) Supplementary file elife-88982-supp2.xlsx: Supplementary file 2. Cytotoxicity of selected hits indicated by cell survival after 72 hr incubation at 10 µM concentration. All compounds were measured in independent triplicates and errors represent standard deviation. Redox activity of selected compounds measured via a photometric surrogate assay. Reactions contained 50 mM HEPES pH 7.5, 50 mM NaCl, 200 mM DTT, and 20 µM resazurin, and were incubated for 1 hr at 37°C.

For series [4], the system named is HepG2. The experiment in a line: Cytotoxicity, cell survival after 72 hr incubation. Format: cell-based. The following applies: HepG2, 10 µM. As to the method: as §1
The target of series [5] is T2, IP6K1^L210V (Homo sapiens, UniProt Q92551, L210V).
T2 construct: made in house; host or cells: E. coli Arctic Express
The series is described as follows: High-throughput screen, reverse kinase reaction (5PP-InsP5 + ADP), Kinase-Glo luminescence. Format: biochemical. From the text: Although the NMR assay described above provides direct product detection and the ability to distinguish the PP-InsP isomers ([Harmel et al., 2019]), it is inherently slow and thus not compatible with a high-throughput screen. The use of luminescence-based readouts of ATP consumption to measure IP6K activity is error-prone due to the kinase’s unusually low affinity for ATP, the sensitivity to the ATP/ADP ratio, and its inherent ATPase activity ([Wundenberg et al., 2014]; [Voglmaier et al., 1996]). Nevertheless, we were able to take advantage of these properties by examining the reverse reaction of IP6K1 with the Kinase-Glo assay, where 5PP-InsP5 and ADP are converted to InsP6 and ATP (Figure 3a).
The following solutions were prepared as 4× stock solutions: kinase buffer (HEPES pH 7.4, NaCl, BSA, MgCl2, Tween-20, DTT, and IP6K1^L210V), DMSO/inhibitor, ADP, and 5PP-InsP5. Final concentrations after optimization were 1 mM ADP, 20 mM HEPES, 50 mM NaCl, 0.2 mg/ml BSA, 2 mM MgCl2, 0.05% Tween-20, 1 mM DTT, 250 nM IP6K1^L210V, and 50 μM 5PP-InsP5. The reactions were carried out in 384-well plates following this procedure. 5 µl 4× kinase buffer (buffer only for no kinase controls), 5 µl 4× DMSO or inhibitor and 5 µl 4× ADP solution were subsequently added to all wells. After 10 min equilibration, 5 μl 4× 5PP-InsP5 were added to start the reaction (milli-Q water for negative controls). After 3 hr at room temperature, 20 µl of Promega Kinase-Glo Plus reagent were added and the luminescence read out with a Tecan Infinite M Plex reader using 100-ms exposure time after 10 min of equilibration.
ADP was prepared in a 2× stock solution in milli-Q water and the pH adjusted to 7.0. The following solutions were prepared as 4× stock solutions: kinase buffer (HEPES pH 7.4, NaCl, BSA, MgCl2, Tween-20, DTT, and IP6K1^L210V) and 5PP-InsP5. Final concentrations were 1 mM ADP, 20 mM HEPES, 50 mM NaCl, 0.2 mg/ml BSA, 2 mM MgCl2, 0.05% Tween-20, 1 mM DTT, 250 nM IP6K1^L210V, and 50 µM 5PP-InsP5. The reactions were carried out in 384-well plates following this procedure. 10 µl 2× ADP solution were added to all wells, then 0.2 µl DMSO or compound (1 mM in DMSO) were added followed by the addition of 5 µl 4× kinase buffer. For dose–response curves, compounds were added in serial dilution (twofold serial dilutions in DMSO across multiple plates prior to compound transfer to assay plates, 9 concentrations in total). After 10 min equilibration, 5 µl 4× 5PP-InsP5 were added to start the reaction (milli-Q water for negative controls). After 3 hr at room temperature, 20 µl of Promega Kinase-Glo Plus reagent were added and the luminescence read out with a Tecan Infinite M Plex or Perkin Elmer EnVision reader using 100ms exposure time after 10 min of equilibration. In the counter screen, dose–response curves were measured in the absence of kinase and presence of 50 µM ATP.

The target of series [6] is T2, IP6K1^L210V. The experiment in a line: Michaelis–Menten and Lineweaver–Burk kinetics (NMR). Format: biochemical. Particulars: versus ATP, two inhibitor concentrations. Here is the method: Kinetic assays were performed in D2O in a total volume of 500 µl containing the same buffer components for IP6K and IP6KA constructs as stated for the NMR activity assays above. […] If applicable, inhibitor was added as a DMSO-d6 stock at a final DMSO concentration of 1%. Otherwise, DMSO-d6 was added to the same percentage. The samples were equilibrated at 37°C for 5 min and the reaction initiated by adding 100 µM [^13C6]-InsP6. The reaction time was adjusted so that conversion would not exceed 20% to remain in the linear range for initial velocity measurements. The reaction was quenched with 38 µl 700 mM EDTA pH* 8.0 and transferred into an NMR tube before being measured on a Bruker […] 600 PLUS with an NMR pulse program developed previously ([Harmel et al., 2019]). Initial velocities were calculated by dividing the amount of generated product by the product of reaction time in seconds and mass of the kinase in mg.

T2 sequence (Q92551 whole entry L210V): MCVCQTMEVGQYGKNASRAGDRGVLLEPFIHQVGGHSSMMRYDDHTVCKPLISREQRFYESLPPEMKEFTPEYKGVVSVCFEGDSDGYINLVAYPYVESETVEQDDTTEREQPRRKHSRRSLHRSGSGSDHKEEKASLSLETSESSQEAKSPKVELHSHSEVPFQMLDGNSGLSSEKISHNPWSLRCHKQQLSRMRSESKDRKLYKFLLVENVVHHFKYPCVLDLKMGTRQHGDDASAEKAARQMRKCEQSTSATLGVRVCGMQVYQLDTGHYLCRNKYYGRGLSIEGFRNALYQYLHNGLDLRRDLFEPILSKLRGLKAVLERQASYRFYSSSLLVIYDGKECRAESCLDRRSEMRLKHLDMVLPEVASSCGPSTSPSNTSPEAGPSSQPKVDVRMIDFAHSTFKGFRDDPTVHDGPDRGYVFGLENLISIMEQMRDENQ
T1 sequence (Q92551 whole entry): as the sequence (Q92551 whole entry L210V) above, with V210L counted along it

For orientation: IC50 means the concentration needed to halve the response being measured. On to `O=C(O)c1ccc2c(c1)C(=O)N(c1ccc(-c3nc4ccc(N5C(=O)c6ccc(C(=O)O)cc6C5=O)cc4[nH]3)cc1)C2=O` [FMP-201300], for which, in series [1], the “reduction of ribosomal RNA synthesis (45S pre-rRNA transcript levels)” value is listed as “able to recapitulate this recently reported phenotype”. For the same compound, the IC50 in series [2] came to 17 µM; in series [5] (Kinase-Glo, reverse reaction, dose-dependent reconfirmation), 1.6 µM. Also, the cytotoxic entry in series [3] and in series [4] was “nor cytotoxic” throughout. In addition, the “Cell number (%)” value was found to be 100.1 ± 4.1% in series [3] (72 hr incubation) and 99.1 ± 2.8% in series [4] (72 hr incubation). The Z-score in series [5] (primary screen, IP6K1^L210V) is recorded as -24.0. For the same compound, the “%Activity” value in series [5] (primary screen, residual activity of IP6K1^L210V) came out at 12.5%. In series [6], the “mechanism of inhibition (Lineweaver–Burk)” value is given as “allosteric mechanism”.
